Values quoted from earlier work in patent publication US20210330638A1, “NANO-PENETRATIVE CANNABINOID OIL BLENDS AND COMPOSITIONS AND METHODS OF FORMULATION THEREOF” (Theragun, Inc., priority 2020, published 2021).

Settings: in vivo

CC1=CCC2CC1C2(C)C (stereo not drawn) [a-Pinene, alpha-pinene]
pulmonary uptake: 60%
